Data from the supplement of paper PMC9663587.

Experiments:
[1] = compound: COc1cccc2c1C(=O)c1c(O)c3c(c(O)c1C2=O)C[C@@](O)(C(=O)CO)C[C@@H]3O[C@H]1C[C@H](N)[C@H](O)[C@H](C)O1 [Doxorubicin]
[2] = compound: CC(C)NC[C@@H](C(=O)N1CCN(c2ncnc3c2[C@H](C)C[C@H]3O)CC1)c1ccc(Cl)cc1 [Ipatasertib/GDC0068]
[3] = compound: CCNC(=O)c1noc(-c2cc(C(C)C)c(O)cc2O)c1-c1ccc(CN2CCOCC2)cc1 [Luminespib/NVP-AUY922]
[4] = compound: CN(C)C/C=C/C(=O)Nc1ccc(O[C@@H]2CCC[C@@H](Nc3ncc(Cl)c(-c4c[nH]c5ccccc45)n3)C2)cc1 [BSJ-01-175]
[5] = compound: T1, CN1CC[C@H](c2c(O)cc(O)c3c(=O)cc(-c4ccccc4Cl)oc23)[C@H](O)C1 [Flavopiridol]
[6] = compound: CC(=O)O[C@H]1C(=O)[C@@]2(C)[C@H]([C@H](OC(=O)c3ccccc3)[C@]3(O)C[C@H](OC(=O)[C@H](O)[C@@H](NC(=O)c4ccccc4)c4ccccc4)C(C)=C1C3(C)C)[C@]1(OC(C)=O)CO[C@@H]1C[C@@H]2O [Paclitaxel]
[7] = compound: Cc1nc(-c2cn3c(n2)-c2ccc(-c4cnn(C(C)(C)C(N)=O)c4)cc2OCC3)n(C(C)C)n1 [Taselisib/GDC0032]
[8] = compound: CN(C)CC[C@H](CSc1ccccc1)Nc1ccc(S(=O)(=O)NC(=O)c2ccc(N3CCN(Cc4ccccc4-c4ccc(Cl)cc4)CC3)cc2)cc1[N+](=O)[O-] [ABT-737]
[9] = compound: O=C(c1cc(Cc2n[nH]c(=O)c3ccccc23)ccc1F)N1CCN(C(=O)C2CC2)CC1 [Olaparib/AZD2281]
[10] = compound: CCc1cnn2c(NCc3ccc[n+]([O-])c3)cc(N3CCCC[C@H]3CCO)nc12; assay: GR value, 72 h; higher = faster growth (1 = untreated, <0 = killing);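 further: breast cancer and non-malignant breast epithelial lines, nine half-log doses, viable cells counted by Hoechst and LIVE/DEAD dye imaging versus time-zero plates and DMSO controls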
[11] = compound: T1, Flavopiridol; assay: as above
[12] = compound: CN(C)C/C=C/C(=O)Nc1ccc(C(=O)N2CCC[C@@H](Nc3ncc(Cl)c(-c4c[nH]c5ccccc45)n3)C2)cc1 [THZ531]; assay: as above
[13] = compound: CN(C)C(=O)c1cc2cnc(Nc3ccc(N4CCNCC4)cn3)nc2n1C1CCCC1 [LEE011/Ribociclib]; assay: as above
[14] = compound: CCN1CCN(Cc2ccc(Nc3ncc(F)c(-c4cc(F)c5nc(C)n(C(C)C)c5c4)n3)nc2)CC1; assay: as above
[15] = compound: CC(=O)c1c(C)c2cnc(Nc3ccc(N4CCN(CCOCCOCCOCCNC(=O)COc5cccc6c5C(=O)N(C5CCC(=O)NC5=O)C6=O)CC4)cn3)nc2n(C2CCCC2)c1=O [BSJ-03-123]; assay: as above
[16] = compound: C=CC(=O)Nc1ccc(C(=O)Nc2[nH]nc3c2CN(C(=O)N[C@H](CN(C)C)c2ccccc2)C3(C)C)cc1 [YKL-5-124]; assay: as above
[17] = compound: CC(=O)c1c(C)c2cnc(Nc3ccc(N4CCNCC4)cn3)nc2n(C2CCCC2)c1=O; assay: as above
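Wherever GR50, 72 h is given: breast cancer and non-malignant breast epithelial cell lines, Deep Dye Drop or Dye Drop imaging, nine half-log doses, GR normalized to time-zero plates and DMSO-only controls.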

Cell Line: AU565
- GR50, 72 h [1]: 0.0352 µM
- GR50, 72 h [2]: 3.89 µM
- GR50, 72 h [3]: 0.00456 µM
- GR50, 72 h [4]: 0.00616 µM
- GR50, 72 h [5]: 0.09 µM
- GR50, 72 h [6]: 0.00163 µM
- GR50, 72 h [7]: 0.00379 µM
- GR50, 72 h [8]: 7.24 µM
- GR50, 72 h [9]: > 10 µM
- GR value ([10]; 0.0001 µM): 0.954 GR
- GR value ([10]; 0.0003162 µM): 0.978 GR
- GR value ([10]; 0.001 µM): 0.974 GR
- GR value ([10]; 0.003162 µM): 0.928 GR
- GR value ([10]; 0.01 µM): 0.19 GR
- GR value ([10]; 0.03162 µM): -0.568 GR
- GR value ([10]; 0.1 µM): -0.734 GR
- GR value ([10]; 0.3162 µM): -0.746 GR
- GR value ([10]; 1 µM): -0.767 GR
- GR value ([11]; 0.0001 µM): 1.11 GR
- GR value ([11]; 0.0003162 µM): 1.02 GR
- GR value ([11]; 0.001 µM): 0.906 GR
- GR value ([11]; 0.003162 µM): 0.852 GR
- GR value ([11]; 0.01 µM): 1 GR
- GR value ([11]; 0.03162 µM): 0.858 GR
- GR value ([11]; 0.1 µM): 0.472 GR
- GR value ([11]; 0.3162 µM): -0.198 GR
- GR value ([11]; 1 µM): -0.69 GR
- GR value ([12]; 0.0001 µM): 0.925 GR
- GR value ([12]; 0.0003162 µM): 0.936 GR
- GR value ([12]; 0.001 µM): 0.948 GR
- GR value ([12]; 0.003162 µM): 0.994 GR
- GR value ([12]; 0.01 µM): 1.05 GR
- GR value ([12]; 0.03162 µM): 0.786 GR
- GR value ([12]; 0.1 µM): 0.0998 GR
- GR value ([12]; 0.3162 µM): -0.343 GR
- GR value ([12]; 1 µM): -0.521 GR
- GR value ([13]; 0.001 µM): 0.82 GR
- GR value ([13]; 0.003162 µM): 0.739 GR
- GR value ([13]; 0.01 µM): 0.645 GR
- GR value ([13]; 0.03162 µM): 0.742 GR
- GR value ([13]; 0.1 µM): 0.569 GR
- GR value ([13]; 0.3162 µM): 0.546 GR
- GR value ([13]; 1 µM): 0.487 GR
- GR value ([13]; 3.162 µM): 0.425 GR
- GR value ([13]; 10 µM): 0.227 GR
- GR value ([14]; 0.001 µM): 0.876 GR
- GR value ([14]; 0.003162 µM): 0.791 GR
- GR value ([14]; 0.01 µM): 0.605 GR
- GR value ([14]; 0.03162 µM): 0.382 GR
- GR value ([14]; 0.1 µM): 0.268 GR
- GR value ([14]; 0.3162 µM): 0.223 GR
- GR value ([14]; 1 µM): 0.114 GR
- GR value ([14]; 3.162 µM): 0.0465 GR
- GR value ([14]; 10 µM): -0.328 GR
- GR value ([15]; 0.001 µM): 0.962 GR
- GR value ([15]; 0.003162 µM): 0.875 GR
- GR value ([15]; 0.01 µM): 0.791 GR
- GR value ([15]; 0.03162 µM): 0.759 GR
- GR value ([15]; 0.1 µM): 0.833 GR
- GR value ([15]; 0.3162 µM): 0.775 GR
- GR value ([15]; 1 µM): 0.41 GR
- GR value ([15]; 3.162 µM): 0.52 GR
- GR value ([15]; 10 µM): -0.386 GR
- GR value ([16]; 0.001 µM): 0.305 GR
- GR value ([16]; 0.003162 µM): 0.28 GR
- GR value ([16]; 0.01 µM): 0.128 GR
- GR value ([16]; 0.03162 µM): 0.0651 GR
- GR value ([16]; 0.1 µM): -0.0212 GR
- GR value ([16]; 0.3162 µM): -0.0588 GR
- GR value ([16]; 1 µM): -0.111 GR
- GR value ([16]; 3.162 µM): -0.172 GR
- GR value ([16]; 10 µM): -0.563 GR
- GR value ([17]; 0.0003162 µM): 1.04 GR
- GR value ([17]; 0.001 µM): 1.05 GR
- GR value ([17]; 0.003162 µM): 1.01 GR
- GR value ([17]; 0.01 µM): 0.919 GR
- GR value ([17]; 0.03162 µM): 0.73 GR
- GR value ([17]; 0.1 µM): 0.579 GR
- GR value ([17]; 0.3162 µM): 0.39 GR
- GR value ([17]; 1 µM): 0.301 GR
- GR value ([17]; 3.162 µM): 0.154 GR
